In patent US7060875B2, “Methods for delaying leaf senescence using the ORE7 gene” (Postech Foundation, priority 2001, dated 2006):
“Also recorded” adds a separate entry of the source.

How the values were obtained:
[1] = system: wild type Arabidopsis thaliana (Col); test: Northern blot analysis of SEN4 expression after phytohormone treatment; assay type: in vivo; settings: wild type compared to ore7 mutant; 0, 3, 4 and 5 days after treatment
[2] = system: longevity-extended mutant ore7; assay type: in vivo, Arabidopsis thaliana; settings: ore7 mutant leaves at 25 DAG; 50 μM ABA or 50 μM MeJA in MES buffer, or 4.5 μM ethylene gas; 22° C., continuous light
Procedure: (§1) In order to measure the chlorophyll content, the respective sample leaves were boiled in 95% ethanol at 80° C., thereby extracting chlorophyll. The chlorophyll content was measured at absorbance of 648 nm and 664 nm, and expressed as chlorophyll concentration per fresh weight of leaves (Vermon et al., Anal. Chem., 32:1142–1150, 1960).
(§2) Further, in the present invention, a change in leaf longevity of the ore7 mutant according to treatment with phytohormones, such as ABA, MeJA and ethylene that are involved in senescence regulation was examined by measuring changes in photosynthesis activity and chlorophyll content. 12 independent leaves at 25 DAG were floated in 2 ml of MES buffer containing 50 μM ABA or 50 μM MeJA. Treatment with ethylene was carried out by culturing Arabidopsis thaliana in a glass box containing 4.5 μM ethylene gas. As a negative control group, MES buffer not containing ABA or MeJA was used. The treatments with phytohormones as described above were carried out for three days at 22° C. with continuous exposure to light. The chlorophyll content and the photosynthesis activity were measured in the same manner as described in Example 2.

[3] = system: wild type Arabidopsis thaliana (Col); test: Photosynthesis activity (Fv/Fm of PS II) of leaves after phytohormone treatment; assay type: in vivo; settings: wild type leaves at 25 DAG; 50 μM ABA or 50 μM MeJA in MES buffer, or 4.5 μM ethylene gas; 22° C., continuous light
Procedure: (§3) In order to measure photosynthesis activity, a method of Oh et al. (Oh S. A. et al., Plant Mol. Biol., 30: 939, 1996), was used. First, leaves at the respective DAG were dark-treated for 15 minutes and measured for fluorescence of chlorophylls using Plant Efficiency Analyzer (Hansatech). The photosynthesis activity was expressed as photochemical efficiency of photosystem II (PS II) using a fluorescent property of chlorophylls. The photochemical efficiency was expressed as the ratio of maximum variable fluorescence (Fv) to maximum value of fluorescence (Fm) (Fv/Fm). As the ratio is increased, the photosynthesis activity improves.
as §2

[4] = system: longevity-extended mutant ore7; assay type: in vivo, Arabidopsis thaliana; settings: ore7 mutant leaves at 25 DAG; 50 μM ABA or 50 μM MeJA in MES buffer, or 4.5 μM ethylene gas; 22° C., continuous light; remark: listed apart in the source
Procedure: as §3, §2

[5] = system: wild type Arabidopsis thaliana (Col); test: Chlorophyll content of leaves after phytohormone treatment; assay type: in vivo; settings: wild type leaves at 25 DAG; 50 μM ABA or 50 μM MeJA in MES buffer, or 4.5 μM ethylene gas; 22° C., continuous light
Procedure: as §1, §2

| Structure (SMILES) | expression of SEN4 gene [1] | reduction in chlorophyll content [2] | change in photosynthesis activity [3] | change in photosynthesis activity [4] | change in chlorophyll content [5] |
| --- | --- | --- | --- | --- | --- |
| CC1=CC(=O)CC(C)(C)[C@@]1(O)/C=C/C(C)=C\C(=O)O [ABA, abscisic acid] | highly increased | became blunt | significantly reduced; also recorded: rapidly decreased | slight decrease | significantly reduced |
| CC/C=C\CC1C(=O)CCC1CC(=O)OC (stereo not drawn) [MeJA, methyl jasmonate] | highly increased | became blunt | significantly reduced; also recorded: rapidly decreased | slight decrease | significantly reduced |
| C=C [ethylene] | highly increased | became blunt | significantly reduced; also recorded: rapidly decreased | slight decrease | significantly reduced |
